Measurements: publication PMC9161374 (Science Translational Medicine, 2022)
pEC50: −log10 of the molar value. Several values for one entry are separate records, joined by “and”; a condition that tells them apart may be missing. Identical values can stand only once.

Key:
SARS-CoV-2 (B.1) = assay: Anti-SARS-CoV-2 activity in Vero E6 cells (viral yield by qRT-PCR); format: cell-based
[1] = CCK-8 cell viability assay; format: cell-based, African green monkey; conditions: African green monkey; Vero E6 cells, 48 h, CCK8
Method in brief: (§1)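 Vero E6 cells, 20,000/well, exposed to compound at 0–200 μM (0, 0.01, 0.1, 1, 5, 10, 50, 75, 100, 200 μM) for 48 h; viability read by CCK-8 and expressed as percentage versus drug concentration, mean ± SD.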

Vero E6 cells = assay: CCK-8 cell viability assay; format: cell-based, African green monkey; conditions: individual replicate values, Fig.S4
Method in brief: as §1

[2] = tested on: SARS-CoV-2 (Delta, B.1.617.2); assay: microbe, parasite or virus in culture; format: cell-based; conditions: for % Inhibition: delta
[3] = tested on: SARS-CoV-2 (B.1) in Huh7 cells; assay: Anti-SARS-CoV-2 activity in Huh7 cells (viral yield by qRT-PCR); format: cell-based; conditions: B.1, MOI 0.05, 48 h
[4] = tested on: SARS-CoV-2 (Beta, B.1.351); assay: microbe, parasite or virus in culture; format: cell-based; conditions: for % Inhibition: beta
[5] = tested on: SARS-CoV-2 replicon system (pBAC-SARS-CoV-2-Replicon-Luc); assay: microbe, parasite or virus in culture; format: cell-based; conditions: Severe acute respiratory syndrome coronavirus 2, HEK-293T, 60 h

N#C[C@@]1(c2ccc3c(N)ncnn23)O[C@H](COC(=O)c2ccccc2)[C@@H](O)[C@H]1O [ATV013]
% Inhibition (SARS-CoV-2 (B.1); 0.1 μM, replicates, sheet Fig.S3): 0%
% Inhibition (SARS-CoV-2 (B.1); 0.5 μM, replicates, sheet Fig.S3): 0%
% Inhibition (SARS-CoV-2 (B.1); 1 μM, replicates, sheet Fig.S3): 54.9033%
% Inhibition (SARS-CoV-2 (B.1); 2 μM, replicates, sheet Fig.S3): 83.4601%
% Inhibition (SARS-CoV-2 (B.1); 5 μM, replicates, sheet Fig.S3): 91.8254%
% Inhibition (SARS-CoV-2 (B.1); 10 μM, replicates, sheet Fig.S3): 91.2053%
% Inhibition (SARS-CoV-2 (B.1); B.1, 0.01 uM, Vero E6, replicates): 0%
% Inhibition (SARS-CoV-2 (B.1); B.1, 0.1 uM, Vero E6, replicates): 0%
% Inhibition (SARS-CoV-2 (B.1); B.1, 0.25 uM, Vero E6, replicates): 0%
% Inhibition (SARS-CoV-2 (B.1); B.1, 0.5 uM, Vero E6, replicates): 0%
% Inhibition (SARS-CoV-2 (B.1); B.1, 1 uM, Vero E6, replicates): 0%
% Inhibition (SARS-CoV-2 (B.1); B.1, 5 uM, Vero E6, replicates, 5 µM): 99.7536%
% Inhibition (SARS-CoV-2 (B.1); B.1, 10 uM, Vero E6, replicates, 10 µM): 99.9918%
% Inhibition (SARS-CoV-2 (B.1); B.1, 50 uM, Vero E6, replicates, 50 µM): 99.9922%
inhibition at 0.1 µM (SARS-CoV-2 (B.1); Severe acute respiratory syndrome coronavirus 2, Vero C1008, 0.1 μM, replicates, sheet Fig.S3): 0%
inhibition at 0.5 µM (SARS-CoV-2 (B.1); Severe acute respiratory syndrome coronavirus 2, Vero C1008, 0.5 μM, replicates, sheet Fig.S3): 0%
inhibition at 1 µM (SARS-CoV-2 (B.1); Severe acute respiratory syndrome coronavirus 2, Vero C1008, 1 μM, replicates, sheet Fig.S3): 62%
inhibition at 2 µM (SARS-CoV-2 (B.1); Severe acute respiratory syndrome coronavirus 2, Vero C1008, 2 μM, replicates, sheet Fig.S3): 83.8%
inhibition at 5 µM (SARS-CoV-2 (B.1); Severe acute respiratory syndrome coronavirus 2, Vero C1008, 5 μM, replicates, sheet Fig.S3): 93.6%
inhibition at 10 µM (SARS-CoV-2 (B.1); Severe acute respiratory syndrome coronavirus 2, Vero C1008, 10 μM, replicates, sheet Fig.S3): 93.5%
inhibition at 0.01 µM (SARS-CoV-2 (B.1); Severe acute respiratory syndrome coronavirus 2, Vero C1008, B.1, 0.01 uM, Vero E6, replicates): 0%
inhibition at 0.1 µM (SARS-CoV-2 (B.1); Severe acute respiratory syndrome coronavirus 2, Vero C1008, B.1, 0.1 uM, Vero E6, replicates): 0%
inhibition at 0.25 µM (SARS-CoV-2 (B.1); Severe acute respiratory syndrome coronavirus 2, Vero C1008, B.1, 0.25 uM, Vero E6, replicates): 0%
inhibition at 0.5 µM (SARS-CoV-2 (B.1); Severe acute respiratory syndrome coronavirus 2, Vero C1008, B.1, 0.5 uM, Vero E6, replicates): 0%
inhibition at 1 µM (SARS-CoV-2 (B.1); Severe acute respiratory syndrome coronavirus 2, Vero C1008, B.1, 1 uM, Vero E6, replicates): 0%
inhibition at 5 µM (SARS-CoV-2 (B.1); Severe acute respiratory syndrome coronavirus 2, Vero C1008, B.1, 5 uM, Vero E6, replicates): 99.5%
inhibition at 10 µM (SARS-CoV-2 (B.1); Severe acute respiratory syndrome coronavirus 2, Vero C1008, B.1, 10 uM, Vero E6, replicates): 100%
inhibition at 50 µM (SARS-CoV-2 (B.1); Severe acute respiratory syndrome coronavirus 2, Vero C1008, B.1, 50 uM, Vero E6, replicates): 100%
EC90 (SARS-CoV-2 (B.1); Severe acute respiratory syndrome coronavirus 2, Vero C1008, read-out: EC90 (Confidence 95%)): 2.87 µM
pEC50 (SARS-CoV-2 (B.1); Severe acute respiratory syndrome coronavirus 2, Vero C1008, MOI 0.05, 48 h): 5.65
CC50 at 48 h [1]: > 50 µM
cell viability (% of control) (Vero E6 cells; 1 μM compound, 1 µM): 66.6435 % of control and 71.881 % of control and 81.6609 % of control
cell viability (% of control) (Vero E6 cells; 2 μM compound, 2 µM): 62.1939 % of control and 100.479 % of control and 98.8104 % of control
cell viability (% of control) (Vero E6 cells; 5 μM compound, 5 µM): 79.1116 % of control and 101.73 % of control and 106.643 % of control
cell viability (% of control) (Vero E6 cells; 10 μM compound, 10 µM): 79.4361 % of control and 86.4349 % of control and 92.6458 % of control
cell viability (% of control) (Vero E6 cells; 20 μM compound, 20 µM): 76.9332 % of control and 94.4535 % of control and 115.728 % of control
cell viability (% of control) (Vero E6 cells; 50 μM compound, 50 µM): 73.9991 % of control and 102.436 % of control and 88.29 % of control
pEC50 ([2]; Severe acute respiratory syndrome coronavirus 2, Vero C1008, 48 h, read-out: EC50 in Vero E6 cells, SARS-CoV-2 (Delta, B.1.617.2)): 6.02
inhibition at 0.01 µM ([2]; Severe acute respiratory syndrome coronavirus 2, Vero C1008, delta, 0.01 uM, Vero E6, replicates): 0%
inhibition at 0.1 µM ([2]; Severe acute respiratory syndrome coronavirus 2, Vero C1008, delta, 0.1 uM, Vero E6, replicates): 0%
inhibition at 0.25 µM ([2]; Severe acute respiratory syndrome coronavirus 2, Vero C1008, delta, 0.25 uM, Vero E6, replicates): 0%
inhibition at 1 µM ([2]; Severe acute respiratory syndrome coronavirus 2, Vero C1008, delta, 1 uM, Vero E6, replicates): 50.4%
inhibition at 2 µM ([2]; Severe acute respiratory syndrome coronavirus 2, Vero C1008, delta, 2 uM, Vero E6, replicates): 93.4%
inhibition at 5 µM ([2]; Severe acute respiratory syndrome coronavirus 2, Vero C1008, delta, 5 uM, Vero E6, replicates): 96.1%
inhibition at 10 µM ([2]; Severe acute respiratory syndrome coronavirus 2, Vero C1008, delta, 10 uM, Vero E6, replicates): 99.7%
inhibition at 50 µM ([2]; Severe acute respiratory syndrome coronavirus 2, Vero C1008, delta, 50 uM, Vero E6, replicates): 100%
EC90 ([2]; Severe acute respiratory syndrome coronavirus 2, Vero C1008, read-out: EC90 (Confidence 95%), Vero-E6, Delta B.1.617.2): 1.41 µM
% Inhibition ([2]; 0.01 uM, Vero E6, replicates): 0%
% Inhibition ([2]; 0.1 uM, Vero E6, replicates): 0%
% Inhibition ([2]; 0.25 uM, Vero E6, replicates): 0%
% Inhibition ([2]; 0.5 uM, Vero E6, replicates): 0.1843% and 0%
% Inhibition ([2]; 1 uM, Vero E6, replicates): 60.4565%
% Inhibition ([2]; 2 uM, Vero E6, replicates): 90.993%
% Inhibition ([2]; 5 uM, Vero E6, replicates): 93.9334%
% Inhibition ([2]; 10 uM, Vero E6, replicates): 98.4346%
% Inhibition ([2]; 50 uM, Vero E6, replicates): 99.9058%
pEC50 ([3]; Severe acute respiratory syndrome coronavirus 2, Huh-7, read-out: EC50 (Confidence 95%) in Huh7 cells): 6.02
EC90 ([3]; Severe acute respiratory syndrome coronavirus 2, Huh-7, read-out: EC90 (Confidence 95%) in Huh7 cells): 1.32 µM
pEC50 ([4]; Severe acute respiratory syndrome coronavirus 2, Vero C1008, 48 h, read-out: EC50 in Vero E6 cells, SARS-CoV-2 (Beta, B.1.351)): 5.61
inhibition at 0.01 µM ([4]; Severe acute respiratory syndrome coronavirus 2, Vero C1008, beta, 0.01 uM, Vero E6, replicates): 0%
inhibition at 0.1 µM ([4]; Severe acute respiratory syndrome coronavirus 2, Vero C1008, beta, 0.1 uM, Vero E6, replicates): 0%
inhibition at 0.25 µM ([4]; Severe acute respiratory syndrome coronavirus 2, Vero C1008, beta, 0.25 uM, Vero E6, replicates): 0%
inhibition at 0.5 µM ([4]; Severe acute respiratory syndrome coronavirus 2, Vero C1008, beta, 0.5 uM, Vero E6, replicates): 0%
inhibition at 1 µM ([4]; Severe acute respiratory syndrome coronavirus 2, Vero C1008, beta, 1 uM, Vero E6, replicates): 0%
inhibition at 2 µM ([4]; Severe acute respiratory syndrome coronavirus 2, Vero C1008, beta, 2 uM, Vero E6, replicates): 23.7%
inhibition at 5 µM ([4]; Severe acute respiratory syndrome coronavirus 2, Vero C1008, beta, 5 uM, Vero E6, replicates): 99.7%
inhibition at 10 µM ([4]; Severe acute respiratory syndrome coronavirus 2, Vero C1008, beta, 10 uM, Vero E6, replicates): 99.9%
inhibition at 50 µM ([4]; Severe acute respiratory syndrome coronavirus 2, Vero C1008, beta, 50 uM, Vero E6, replicates): 99.9%
EC90 ([4]; Severe acute respiratory syndrome coronavirus 2, Vero C1008, read-out: EC90 (Confidence 95%), Vero-E6, Beta B.1.351): 3.09 µM
% Inhibition ([4]; 0.01 uM, Vero E6, replicates): 0%
% Inhibition ([4]; 0.1 uM, Vero E6, replicates): 0%
% Inhibition ([4]; 0.25 uM, Vero E6, replicates): 0%
% Inhibition ([4]; 0.5 uM, Vero E6, replicates): 0%
% Inhibition ([4]; 1 uM, Vero E6, replicates): 0%
% Inhibition ([4]; 2 uM, Vero E6, replicates): 12.3832%
% Inhibition ([4]; 5 uM, Vero E6, replicates): 99.5222%
% Inhibition ([4]; 10 uM, Vero E6, replicates): 99.9634%
% Inhibition ([4]; 50 uM, Vero E6, replicates): 99.9455%
pEC50 ([5]; read-out: EC50 (Confidence 95%), replicon): 6.30
EC90 ([5]; read-out: EC90 (Confidence 95%), replicon): 1.14 µM
